From ChEMBL document CHEMBL1137120, “Synthesis and biological evaluation of flavonoids as vasorelaxant agents” (2004) come the findings set out here.

Molecules are shown by their SMILES.

For the assay, the species on record is Rattus norvegicus. The assay can be described thus: Tested for vasorelaxant activity in rat thoracic aorta rings against PE-induced contractions. Format: functional.
With `O=c1cc(-c2ccc3c(c2)OCO3)oc2cc(O)cc(O)c12`, the Maximal relaxation was 91.3%.
The molecule `Cc1ccc(-c2cc(=O)c3c(O)cc(O)cc3o2)cc1` yielded a Maximal relaxation of 77.2%.
Then `Cc1c(O)c(C)c2c(c1O)C(=O)C(O)C(c1ccc(O)cc1)O2` (centres undefined), with 64.4%.
As for `O=c1cc(-c2cccc(Br)c2)oc2cc(O)cc(O)c12`, the figure is 95%; as for `O=c1cc(-c2ccc(Cl)cc2)oc2cc(O)cc(O)c12`, 92.7%.
As for `COc1cccc(-c2cc(=O)c3c(O)cc(O)cc3o2)c1`, the figure is 80.8%; as for `O=c1c(O[C@@H]2OC[C@@H](O)[C@H](O)[C@@H]2O)c(-c2ccc(O)c(O)c2)oc2cc(O)cc(O)c12`, 24.7%.
Molecule `O=c1c(O[C@@H]2OC[C@@H](O)[C@@H](O)[C@H]2O)c(-c2ccc(O)c(O)c2)oc2cc(O)cc(O)c12` gave a Maximal relaxation of 35.1%.
Molecule `COCOc1c(-c2ccc(O)c(O)c2)oc2cc(O)cc(O)c2c1=O` came in with a Maximal relaxation of 71.6%.
As for `O=c1cc(-c2ccccc2)oc2cc(O[C@@H]3O[C@H](CO)[C@@H](O)C(O)[C@H]3O)c(O)c(O)c12` (single isomer, unassigned), the figure is 36.2%; as for `O=c1c(O[C@@H]2O[C@H](CO)C(O)C(O)[C@H]2O)c(-c2ccc(O)c(O)c2)oc2cc(O)cc(O)c12` (single isomer, unassigned) [ISOQUERCETIN], 34%.
Then `C[C@@H]1O[C@@H](OC[C@H]2O[C@@H](Oc3c(-c4ccc(O)c(O)c4)oc4cc(O)cc(O)c4c3=O)C(O)[C@@H](O)[C@@H]2O)[C@H](O)[C@H](O)[C@H]1O` (single isomer, unassigned) [RUTIN], with 24.7%; and `O=c1cc(-c2ccc(O)c(O)c2)oc2cc(O)cc(O)c12` [LUTEOLIN], with 70.2%.
Regarding `O=c1c(O)c(-c2ccc(O)c(O)c2)oc2cc(O)cc(O)c12` [QUERCETIN], the Maximal relaxation is given as 45.9%.
